Data set [1] deals with postmenopausal women with SUI. The experiment in a line: Proof of concept clinical study: safety. Format: in vivo, human. Particulars: 3 mg/day p.o., 12 weeks. The method, then: Described is the safety profile of Compound IX 3 mg PO daily in subjects with SUI. See Table 8 which is historical data from other clinical trials establishing the safety profile of Compound IX in human subjects. See also the lack of increase in endometrial thickness in Example 19.
For the PGI-S measure, 12 patients reported symptoms as “moderate” or “severe” at baseline; whereas only 3 patients reported “moderate” symptoms and no patients reported “severe” at 12 weeks (FIG. 12A).

For another data set, the system named is male and female humans. The experiment in a line: Phase 3 studies G300504 and G300505: lean body mass. The class given is in vivo, human. Particulars: 3 mg daily, two phase 3 studies. The text has this: Extensive clinical data related to the use of Compound IX are described below; however, there are both preclinical and clinical data supporting the specific investigation of Compound IX for the treatment of SUI. Among the preclinical findings are that Compound IX has androgenic and anabolic activity in male and female rat models. […] These studies together provide an approximation of the expected effect of Compound IX, since currently there are no data in female models regarding levator ani hypertrophy or stress urinary incontinence. […] Based upon these preclinical and clinical analyses, a significant growth/bulking of the levator ani in females with SUI was anticipated, which may also result in improvements in associated symptoms, and are therefore the focus of the study outlined herein.

Data set [2] deals with postmenopausal women with SUI. The experiment in a line: Proof of concept clinical study: stress leaks per day by 3 day voiding diary. The class given is in vivo, human. Here is the method:
This was initially a single site, proof of concept feasibility study to describe the effect of the S-isomer of the compound of Formula IX (Compound IX) 3 mg in postmenopausal female subjects with SUI. However, data presented herein were from subjects seen at 3 separate sites.
Described is the effect of 12 weeks of treatment of Compound IX on the number of stress urinary incontinence episodes/day as assessed by the 3 day voiding diary. See leaks/day data in Tables 2 (individual subject data from all 3 sites), Tables 4-6 (mean stress leaks for sites 1, 2, and 3, respectively), and FIG. 10 (mean stress leaks/day across all sites). Further, see Table 3 for the durability of this response in subjects assessed at 16, 24, 32 and 40 weeks (and their pad weights).
Subjects were instructed to take one 3 mg softgel capsule per day by mouth, without regard to food intake.
This is a proof of concept feasibility study, so no power calculation was needed. Therefore, up to 35 subjects meeting inclusion/exclusion criteria would be recruited until the enrolled subjects have completed treatment. Further, durability was assessed at 40 weeks. Descriptive statistics were performed to explore changes in primary and secondary outcomes measures between baseline and weeks 12 (end of treatment) or 40 (durability). The primary efficacy measure was a reduction in the number of stress incontinence episodes/day. […] Safety will be determined by the number and type of adverse events reported during treatment, but is reported here from historical data from other clinical trials. Various imputation methods may be explored.
Change in frequency of daily stress urinary incontinence episodes from Baseline to Week 12 and durability at 40 weeks (28 weeks after Compound IX treatment is discontinued).
The data were collected from first 18 patients at 12 weeks and are derived from number of stress leaks reported by subjects in a 3 day voiding diary. […] Table 3 provides durability data of Compound IX for 18 patients and depicts that, for the first 9 subjects, this response was durable out to 40 weeks, i.e., 28 weeks (7 months) after treatment with Compound IX was discontinued. Data collection and analysis is ongoing.

The subject of another data set is levator ani muscle. The experiment in a line: Levator ani muscle weight in castrated rats treated subcutaneously for 14 days. Format: in vivo, rat. Conditions: castrated Sprague Dawley rats, subcutaneous, 3 mg/day. An excerpt: At sacrifice, organs were weighed and expressed as raw organ weights. Values are expressed as average±S.D. Increased size and strength of pelvic floor muscles is one mechanism by which SARMs are believed to affect UI.
At sacrifice, organs were weighed and expressed as raw organ weights. Values are expressed as average±S.D.

“And” between values parts separate entries of the source, which are not always exact repeats. Identical values can stand only once.

`C[C@](O)(COc1ccc(C#N)cc1)C(=O)Nc1ccc(C#N)c(C(F)(F)F)c1` [Compound IX, (S)—N-(4-Cyano-3-(trifluoromethyl)phenyl)-3-(4-cyanophenoxy)-2-hydroxy-2-methylpropanamide]: in data set [1], the SHBG entry was “Reductions in SHBG”, the endometrial stripe thickness entry is reported as “No changes in endometrial stripe thickness”, the liver enzymes entry is “Mild transient elevations in liver enzymes” and the serious adverse events entry was “no serious adverse events reported”. For the same molecule, the “total cholesterol, LDL, HDL and triglycerides” value in data set [1] was “reductions in total cholesterol, LDL, HDL and triglycerides”. In the data set with male and female humans, the “increase in lean body mass” value is reported as “approximately 1.7%”. Besides, in data set [2] (N=9, 7 months after discontinuation), the “mean stress leaks/day at 40 weeks” value is reported as 0.63 leaks/day. Further, the “Stress Leaks % Reduction” value in data set [2] (Site 1 (n = 10), week 12) was 86%. Besides, in data set [2] (Site 2 (n = 5), week 12), the “Stress Leaks % Reduction” value was found to be 75%. Moreover, the “Stress Leaks % Reduction” value in data set [2] (Site 3 (n = 2), week 12) is on record as 78%. Also, the “reduction of mean stress leaks/day from baseline to week 12” value in data set [2] (all sites, 18 patients) came out at 81%. Moreover, the “mean stress leaks/day at week 12” value in data set [2] (all sites, 18 patients, baseline 5.17) was 1.0 leaks/day and 1.00 leaks/day. Further, the “Leaks/Day (Week 12), stress leaks” value in data set [2] (individual patients, 3 mg/day p.o., week 12) was 2.33 leaks/day and 0 leaks/day (3×) and 1 leaks/day (2×) and 1.33 leaks/day (2×) and 0.33 leaks/day (3×) and 1.66 leaks/day and 1.30 leaks/day and .67 leaks/day and 2.3 leaks/day and .33 leaks/day and 3 leaks/day and 0.67 leaks/day. In addition, the “Durability of response: % Reduction in leaks/day Week 16” value in data set [2] (individual patients, 4 weeks post-treatment) was 77% and 100% (5×) and 60% and 50% and 92% and 89% and 79% and 78% and 64% and 65%. For the same molecule, in data set [2] (individual patients, 12 weeks post-treatment), the “Durability of response: % Reduction in leaks/day Week 24” value was 69% and 100% (6×) and 70% and 42% and 95% and 10% and 57% and 78% and 50% and 60%. In data set [2] (individual patients, 20 weeks post-treatment), the “Durability of response: % Reduction in leaks/day Week 32” value was 54% and 95% and 100% (3×) and 17% and 50% and 36% and 55% and 93%. Also, the “Durability of response: % Reduction in leaks/day Week 40” value in data set [2] (individual patients, 28 weeks post-treatment) is 69% and 100% (5×) and 80% and 42% and 72%. Further, the “patients who were responders (50% or greater reduction in stress leaks/day)” value in data set [2] (week 12, 18 patients) was “all patients were responders and All 18 patients were responders and All 18 subjects and all 18 subjects and 18 of 18”. For the same molecule, the “levator ani muscle weight” value in the data set on levator ani muscle is “elicits hypertrophy of the levator ani muscle”.

For the origin of these results see US20180353460A1, “METHODS OF TREATING UROLOGICAL DISORDERS USING SARMs” (priority 2014, published 2018).
